As a reminder, the melting point is the temperature, or range, at which the solid turns liquid.

As for `CC(C)c1cc([N+](=O)[O-])c(O)c(C(C)C)c1NC(=O)CN1CCN(CCSc2nc3ccccc3o2)CC1`, the melting point was in the range of 139 to 141 °C.
The same measure for `CC1(C)CCC(C)(C)c2cc(C(N)COc3ccc(C(=O)O)c(O)c3)ccc21` (centres undefined): 241 to 242 °C.
`COc1cc(CCCn2cncn2)ccc1OCc1coc(/C=C/c2ccccc2)n1` gave a melting point of 113 to 114 °C.
`CCCCCCCOC(=S)SC(Cn1ccnc1)c1ccc(Cl)cc1Cl` (centres undefined) yielded a melting point of 107 to 113 °C.
The same measure for `COC1CCN(S(=O)(=O)c2ccc(S(N)(=O)=O)cc2C(F)(F)F)CC1`: 136 to 137 °C; for `BrCCCCCc1nc2ccccc2[nH]1`: 134 to 136 °C; for `CC(CSC(=S)c1ccc(F)cc1)C(=O)N1CCCC1C(=O)O` (centres undefined): 114 to 115 °C.
Take `Cc1c(-c2cc(O)c(Cl)cc2F)ncnc1C(F)(F)F`: the melting point was 141 to 142 °C.
The same measure for `COc1cc(Cc2cnc(N)nc2N)cc(OC)c1Cl`: 218 °C; for `CCCc1c(CSc2nnc(SCc3ccc(OC(C)C(=O)O)cc3)s2)ccc(C(C)=O)c1O` (centres undefined): 138 °C; for `CCCNC(=O)c1ccc(Nc2nc(OCC3CCCCC3)c3nc[nH]c3n2)cc1`: 226 to 228 °C.
To `O=C(c1cc(-c2ccccc2)no1)C1CCCCC1N1CCCC1` (centres undefined) belongs 109 to 111 °C; to `COC(=O)c1n[nH]c2nc(N3CCN(C)CC3)ccc12`, 230 to 231 °C; to `O=c1cnc(-c2cccc(Cc3ccccc3)c2)nn1CC(F)(F)F`, 95 to 96 °C.
The same measure for `CC1C(=O)N(CCO)C(=S)N1c1ccc(Oc2ccccc2)cc1` (centres undefined): 120 °C.
For `O=C(O)c1ccc(=O)n(CCNC(=O)c2ccncc2)c1`, the melting point is greater than 300 °C.
To `c1csc(C2=NCC3COCCN3c3cc4c(cc32)OCCO4)c1` (centres undefined) belongs 192 to 194 °C; to `COc1ccc(C=C2NC(=O)NC2=O)cc1OC1CCCC1`, 220 to 222 °C; to `CCCCCCNc1cccc2c1C(=O)c1cccc(NCCCCCC)c1C2=O`, 142 to 144 °C.
The same measure for `CCOC(=O)C1NCc2[nH]c3cccc(OCc4ccccc4)c3c2C1COC` (centres undefined): 170 to 171 °C.
To `NCc1ccc(-c2nc(-c3ccc(F)cc3)c(-c3ccncc3)[nH]2)cc1` belongs 214 to 215 °C; to `CCC=Nc1cc(CO)cc(Nc2c3ccccc3nc3ccccc23)c1`, 262 to 263 °C; to `CC(=O)NCCn1ccc2c1-c1c(Cl)cccc1CC2`, 146 to 147 °C.
Take `COc1cccc(-c2c3cccc(OC(C)=O)c3c(OC(C)=O)c3c(OC(C)=O)cccc23)c1`: the melting point was determined as 278 °C.
`Cc1c(Br)ccc2c1oc1ccccc12` returned a melting point of 124 to 125 °C.
In the case of `NC1=NS(=O)N=C1NCCCOc1cc(CN2CCCCC2)ccn1` (centres undefined), the melting point fell in the range of 154 to 158 °C.
As for `O=C(NC(=S)N1CCC(=O)C(C(c2ccccc2)c2ccccc2)C1)c1ccccc1` (centres undefined), the melting point fell in the range of 168 to 169 °C.
For the molecule `N=C(NCc1ccco1)NN=Cc1c(Cl)cccc1Cl`, the melting point lay in the range of 134 to 136 °C.
To `N#CNC=NCc1ncc(C(F)(F)F)cc1Cl` belongs 106 to 108 °C; to `N#Cc1ccc(CC2CCN(C(=O)C(=O)Nc3ccc4[nH]c(=O)oc4c3)CC2)cc1`, 194 °C.
In the case of `COc1cc(C=C(C#N)C(=O)Nc2cccc(Cl)c2)cc(Cl)c1O`, the melting point lay within 225 to 226 °C.
The same measure for `COc1ccc(Nc2cnc3cnc(-c4ccc(O)cc4)nc3c2)cc1`: 134 to 136 °C; for `CON1C=C(C)N=C(NC(=O)NS(=O)(=O)c2ccccc2C=CC(F)(F)F)N1`: 159 to 160 °C.
The same measure for `Cc1cc(C2=NOC(c3cc(Cl)cc(Cl)c3)(C(F)(F)F)C2)ccc1C(=O)NC1CON(CCO)C1=O` (centres undefined): 78 °C; for `CCC(=O)C1c2cccc(O)c2C(=O)c2c(OC(=O)C(C)C)cccc21` (centres undefined): 111 °C; for `CCOC(=O)c1sc(N(C)C)c2c1CCc1cnn(C)c1-2`: 118 to 119 °C.
Regarding `CCCCCCCCCCCCOCC1CN(c2cc3c(cc2F)c(=O)c(C(=O)O)cn3CC)CCN1` (centres undefined), the melting point lay within 125 to 127 °C.
Turning to `O=C(O)C(O)c1cccc(OCc2ccccc2Cl)c1OCc1ccncc1` (centres undefined), the melting point fell in the range of 181 to 183 °C.
To `COc1cc(C(C)C)ccc1C1(NC(C)=O)C(=O)c2ccccc2C1=O` belongs 222 to 224 °C.
The same measure for `Cc1coc(C)c1-c1nc2cc(Cl)cc(CCc3ccccn3)c2o1`: 73 to 76 °C.
As for `O=C(Nc1ccc(OC(F)(F)F)cc1)NC1CCN(S(=O)(=O)c2ccccc2)CC1`, the melting point was in the range of 188 to 189 °C.
To `CC(C)Cn1cccc1C(N)=S` belongs 126 to 128 °C; to `Brc1cnc(N2CCCC2)c(OCC2CCCC2)n1`, 54 to 55 °C.
The same measure for `CCOc1nc(C(F)(F)F)cc(=O)n1-c1cc(OC)c(Br)cc1F`: 126 to 128 °C; for `O=C(C1=C(c2ccccc2)c2ccc(O)cc2CC1)c1ccc(O)cc1`: 205 to 207 °C.
The same measure for `O=C(NC1CNC1=O)OCc1ccccc1` (centres undefined): 160 to 161 °C; for `CC1(c2ccc3c(c2)C(c2ccccc2)=NCC(=C[N+](=O)[O-])N3)OCCO1`: 158 to 161 °C; for `Cc1cc(-c2cccc(-c3ccc(OCC(=O)O)c4c3CCCC4)n2)c(C)[nH]1`: 199 to 206 °C.
In the case of `COC(=O)c1ccc(Oc2c(C)n(CC(=O)O)c3ccc(F)cc23)cc1`, the melting point is 195 to 196 °C.
For the molecule `CCn1cc(CN(C(=O)C2CCCc3cc(OCc4ccccc4)ccc32)c2ccc(C(C)C)cc2)cn1` (centres undefined), the melting point lay within 122 to 124 °C.
`CCOC(=O)COc1ccc(NC(=O)OC(C)(C)C)cc1C(F)(F)F` returned a melting point of 104 to 105 °C.
Consider `CCCC(=O)N1CCc2nc3ccccc3c(C)c2CC1`, for which the melting point was 130 °C.
To `O=C(O)C(=O)c1c(Cl)cc(OCCOc2ccc3ccccc3c2)cc1Cl` belongs 155 to 156 °C.
To `CCCc1c(OCCCCc2ccc3cc(OC)c(OC)cc3c2)ccc(C(=O)O)c1O` belongs 147 to 148 °C; to `Clc1ccc(CCNc2ccc3ccc(NCCc4ccc(Cl)cc4)nc3c2)cc1`, 55 to 60 °C.
`CC(=O)Nc1nc2c(Oc3cc(-c4ccc(C(F)(F)F)cc4NC(=O)OC(C)(C)C)ncn3)cccc2s1` gave a melting point of 194 to 195 °C.
To `CC=CCn1c(C)c(C)c2cnnc(CCc3ccc(F)cc3F)c21` belongs 114 to 118 °C; to `COc1ccc(/C=C2/c3cc(OC)c(OC)cc3CCN2C(=O)c2cc(OC)c(OC)c(OC)c2)cc1OC`, 195 to 200 °C; to `COc1ccc(-c2c3c(cc4ccc(OC)cc24)C(=O)NC3)cc1`, 290 to 292 °C.
Molecule `CC(C)Oc1ccc(NC=O)cc1C(F)(F)F` showed a melting point of 80 to 82 °C.
The same measure for `CC(C)(C)c1ccc(C(=O)Nc2cn3nc(NC4CCCCC4)ccc3n2)cc1`: 296 to 297 °C.
The same measure for `O=C1CCc2cc(C3=NNC(=O)C4CCC34)ccc2N1` (centres undefined): 349 to 353 °C.
The same measure for `COc1ccc(COc2cccc(OC)c2C(C)=O)cc1`: 105 to 107 °C.
Consider `Clc1nc(Cl)nc(Oc2ccccc2)n1`, for which the melting point is 113 to 114 °C.
To `CCCn1c(COC)nc2c(N)nc3ccc(OCC(=O)N4CCOCC4)cc3c21` belongs 201 to 204 °C; to `Cc1cc(C)c(C(=O)O)c(C)c1C`, 164 to 167 °C.
As to `CCc1ccc(S(=O)(=O)n2c(CCC(=O)O)cc3cc(Cl)ccc32)cc1`, the melting point was 130 to 133 °C.
To `Cc1ccc(-c2nn(-c3ccc(Br)cc3)c(N)c2C(N)=O)cc1` belongs 222 to 223 °C.
For `COc1ccc(COc2ccc(CSc3ccc(OCC(=O)O)c(C)c3)cc2)cc1`, the melting point lay in the range of 150 to 152 °C.
The same measure for `O=C1C(=CO)C(c2ccc(Cl)cc2)c2ccc(Cl)cc21` (centres undefined): 122 to 124 °C.
The molecule `CCCCCC(=O)c1cc(Cl)ccc1N(CC(=O)OC)S(=O)(=O)c1ccc(C)cc1` returned a melting point of 68 to 70 °C.
To `CN=C(NC#N)NCC(O)COc1cccc(CN2CCCCC2)c1` (centres undefined) belongs 45 to 47 °C; to `COC1C(O)C=C(C)C(OC(=O)c2ccccc2)CC1(C)C` (centres undefined), 82.5 to 83.5 °C; to `CC(=O)Nc1cccc(C)c1C(=O)O`, 189 to 190 °C.
`CC(C)(C)C(O)Cn1c(-c2ccccc2[N+](=O)[O-])nc2ccccc21` (centres undefined) registered a melting point of 192 to 193 °C.
Molecule `Cc1nccn1-c1nc(Cl)c(-c2ccccc2)c2ccccc12` showed a melting point of 167 to 168 °C.
Turning to `Oc1ccc2c(-c3nc4ccc(O)cc4o3)cccc2c1`, the melting point was in the range of 273 to 275 °C.
The same measure for `COc1ccc(Nc2nc(-c3cccc(C(=O)Nc4ccc(C(=O)OCc5ccccc5)cc4)c3)cn3ccnc23)cc1OC`: 154 to 160 °C.
The same measure for `CCOC(=O)c1cn(CC)c2cc(F)c(F)c(C)c2c1=O`: 157 to 159 °C; for `COc1cc(C=O)ccc1OC(=O)NCCc1ccccc1`: 133 to 138 °C.
To `COC(=O)c1cc(OC)c(OS(=O)(=O)C(F)(F)F)cc1N` belongs 85 to 87 °C.
`CCc1cc2c(s1)N(C(=O)NCCN(C)C)CCN=C2c1ccccc1Cl` had a melting point of 160 to 162 °C.
To `CCOC(=O)Oc1ccc(C(=O)Oc2ccc(C#N)cc2)cc1` belongs 145 °C; to `COC(=O)c1cccc2c1N=C(c1ccccc1Cl)CC2=O`, 166 to 168 °C; to `COC(=O)c1cc2[nH]nc(N)c2s1`, 218 to 220 °C.
The same measure for `Cc1nn(-c2cc3nc(S)sc3cc2F)c(=O)n1C(F)F`: 248 to 250 °C; for `NCCNCCNc1ccc2c3c(nn2CCO)-c2c(O)ccc(O)c2C(=O)c13`: 185 to 190 °C.
The same measure for `CS(=O)c1cccc2c1C(=O)N1CCCC1c1c(C(=O)OC(C)(C)C)ncn1-2` (centres undefined): 224 to 225 °C; for `Brc1cccc(Oc2ncccc2OCCCc2ccncc2)c1`: 111 to 113 °C.

The values above are taken from a melting point compilation (Tetko et al.; mined from patent text by program, amines drawn as free bases though some values may be those of a salt).
